Values quoted from earlier work in patent US9572894B2, “Biodegradable particulate formulations” (The University of Iowa Research Foundation, priority 2010, dated 2017).

System: gliomas
Details: ten daily i.t. injections

In the case of COc1cccc2c1C(=O)c1c(O)c3c(c(O)c1C2=O)C[C@@](O)(C(=O)CO)C[C@@H]3O[C@H]1C[C@H](N)[C@H](O)[C@H](C)O1 [doxorubicin], the reported toxicity is listed as “limited to headache” and the “subjects with local regression” value is listed as “six of the ten”.
